# Laboratory results from PubChem BioAssay AID179 (DTP/NCI, 2004).
# The source made the active and inactive calls.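 How the source made its calls: active means compounds giving half or more protection of infected cells from virus-caused growth loss, again on retest; inactive means the rest.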 Where a SMILES comes first, the peptide text is derived from it. The star is where a group is joined. Boc = CC(C)(C)OC(=O)*
# System: CEM cells HIV-1 protection, formazan growth assay
# Assay: NCI AIDS Antiviral Assay
# Conditions: for IC50: measured here: growth of uninfected CEM cells
# Outline: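 Five concentrations of each compound were applied to infected and uninfected human CEM cells. Protection from HIV-1 was judged from growth measured with a soluble formazan assay.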
Structure (SMILES),EC50 [µM],IC50 [µM],outcome
COc1ccccc1[B-]12OCC[N+]1(CNC(=O)C1=C(O)C3(O)C(=O)C4=C(O)c5c(O)cccc5C(C)(O)C4CC3C(N(C)C)C1=O)CCO2 (stereo not drawn),> 27.5,> 27.5,–
COc1ccc2cc(C(=O)O)ccc2c1OC,> 200,> 200,–
O=[N+]([O-])c1ccccc1Oc1ccccc1,55,87.1,–
CCc1cc2c(=O)[nH]c(-c3cccnc3)nc2s1,> 200,> 200,–
c1ccc(SC2CCCCO2)cc1 (stereo not drawn),–,–,inactive
COC(=O)C(Cc1c[nH]c2ccccc12)NC(=O)C(Cc1c[nH]c2ccccc12)NC(=O)C(Cc1c[nH]c2ccccc12)NC(=O)C(Cc1c[nH]c2ccccc12)NC(=O)C(Cc1c[nH]c2ccccc12)NC(=O)OC(C)(C)C (stereo not drawn) (Boc-WWWWW-OMe; configuration not given here),> 200,27.5,–
COc1cc(N=CNc2cc(OC)n[n+]([O-])c2)c[n+]([O-])n1,> 224,> 224,–
S=C1C(CCCOCc2ccccc2)C2CCCC23CC2(CCN13)OCCS2 (stereo not drawn),> 200,39.8,–
COc1cc(C2c3cc4c(cc3OC(NNc3ccccc3)C2C)OCO4)cc(OC)c1O (stereo not drawn),–,–,inactive
Cc1cc(Br)cc(C)c1NC(=O)C(=O)Nn1c(=S)[nH]c2ccccc2c1=O,> 209,> 209,–
N#CCCN(CCC#N)c1ccc(/C=C2\N=C(c3ccccc3)N(c3ccccn3)C2=O)cc1,> 200,> 200,–
Cc1nc2c(sc3nc4ccccc4n32)c(=O)[nH]1,> 100,> 100,–
Cc1noc(NC2=CC(=O)C(=O)c3ccccc32)c1C,> 200,3.98,–
CN(C)CC1CCC(CN(C)C)C1=NO (stereo not drawn),–,–,inactive
N#CC1(C#N)OC12CCS(=O)(=O)c1ccccc12 (stereo not drawn),> 501,89.1,–
COc1ccc(C2Nc3cc(Cl)ccc3NC3=C2C(=O)CC(C)(C)C3)cc1 (stereo not drawn),> 200,83.2,–
Cn1cc2ccccc2c1-c1nc(F)nc(Oc2ccc3c(c2)CC[C@@H]2C3CC[C@@]3(C)C2C[C@H](O)[C@@H]3O)n1 (stereo partly drawn),> 10,> 10,–
CCOC(=O)N1C2C=C(C)C(ON2C(=O)c2ccccc2)C2C(C)C(=O)N21 (stereo not drawn),> 355,> 355,–
O=C(N=C1[Se]C(=Nc2ccccc2)C(=Nc2ccccc2)N1c1ccccc1)c1ccccc1,> 200,107,–
N/N=C(\c1nc2ccc(Cl)cc2[nH]c1=O)C(O)c1ccc(Cl)c(Cl)c1 (stereo not drawn),> 245,20.4,–
CC1(O)CC2(O)C=CC3=C(C(=O)c4cccc(O)c4C3=O)C2(O)C(=O)C1O (stereo not drawn),> 676,0.339,–

Structure (SMILES),EC50 [µM],IC50 [µM],outcome
Cn1c(SCc2ccc(F)cc2)nnc1C12CC3CC(CC(C3)C1)C2,> 200,105,–
O=C1NC(N2CCOCC2)=N/C1=C\c1ccccc1,> 200,> 200,–
C/C(=N/NC(=S)N1CCCCC1)c1cccc(/C(C)=N\NC(=S)N2CCCCC2)n1,> 200,13.2,–
COC(=O)CC[C@@H](C)C1CCC2[C@@H]3CC[C@@H]4CC(COS(=O)(=O)c5ccc(C)cc5)CC[C@]4(C)C3CC[C@@]21C (stereo partly drawn),> 8.32,> 8.32,–
CCCC/C=C(/CCCNC=O)[Si](C)(C)C,> 537,> 537,–
Oc1[nH]c2ccccc2c1N=Nc1nc(-c2ccc(Cl)c(Cl)c2)cs1,> 200,40.7,–
O=C(O)c1ccc(CSc2ccccc2C(=O)O)cc1,> 126,> 126,–
COc1ccc(C2=NOC3COC4C=CC=CC4OCC23)cc1 (stereo not drawn),> 83.2,> 83.2,–
CCOc1ccc(C2=C(Cl)c3cc(OC)c(OC)cc3C2Cl)cc1 (stereo not drawn),–,–,inactive
Nc1ccc(C(=O)NN2C(=O)C(Cl)C2c2ccccc2O)cc1 (stereo not drawn),> 200,29.5,–
COc1ccc(C2SC(C)C(=O)N2c2nc(-c3nc(-c4ccc(Cl)cc4)cs3)cs2)cc1 (stereo not drawn),> 200,> 100,–
O=Nc1c(-c2ccccc2)[nH]oc1=O,> 200,36.3,–
O[C@@H]1[C@H]2CC(OCc3ccccc3)C[C@H]2C[C@@H]1O (stereo partly drawn),> 1000,> 1000,–
COc1cc(C(=O)C/C(CCCC(=O)Nc2ccccc2[N+](=O)[O-])=N/NC(=O)c2cc3ccccc3cc2O)ccc1O,> 32.4,27.5,–
CC1(C)CS(=O)(=O)CC(C)(C)C(=O)C1=O,> 200,> 200,–
CC(C)(c1ccc(OP2(=O)OCC3(CC=CCC3)CO2)cc1)c1ccc(OP2(=O)OCC3(CC=CCC3)CO2)cc1 (stereo not drawn),> 200,22.9,–
COc1ccc(OC)c(NC(=O)C2=C(C)NC(C)=C(C(=O)Nc3cc(OC)ccc3OC)C2c2ccccc2)c1,–,–,inactive
COC(=O)C1C2CC3c4[nH]c5cc(OC)ccc5c4CCN3CC2CC(OC)C1OC (stereo not drawn),> 200,> 200,–
NC1=NC(=O)CS1,> 2140,> 2140,–
Cn1c(=O)c2nc3sc4c(n3c2n(C)c1=O)C(=O)c1ccccc1C4=O,> 14.1,> 14.1,–
c1ccc(Cn2cc(CCc3ccncc3)c3ccccc32)cc1,> 200,28.2,–

Structure (SMILES),EC50 [µM],IC50 [µM],outcome
Cc1c2c(n3c(nc4ccccc43)c1C#N)N(c1ccc(Cl)cc1)CC2,> 50.1,> 50.1,–
Cc1cc(C)nc(NS(=O)(=O)c2ccc(Nc3c4ccccc4nc4ccc(C(=O)Nc5ccc(S(N)(=O)=O)cc5)cc34)cc2)n1,> 200,89.1,–
CCN(CC)CCNc1ccc(CO)c2oc3ccc(OS(=O)(=O)c4ccc(C)cc4)cc3c(=O)c12,> 51.3,8.91,–
c1cncc(C2c3[nH]c4ccccc4c3CCN2CCN2CCCCC2)c1 (stereo not drawn),> 3.98,> 3.98,–
O=C(CN1C(=O)c2cccc3c(Br)ccc(c23)C1=O)c1ccc(Cl)cc1,> 200,33.1,–
COc1ccc(N2C(=O)c3cc([N+](=O)[O-])cnc3S2(=O)=O)cc1,> 200,28.2,–
CCCCCCCCCCCC(=O)OCCOCCOCCOCCOCCOC(=O)CCCCCCCCCCC,–,–,inactive
CC1=C2C(c3ccccc3)(c3ccccc3)C3C=CC2(C=N3)N(C(=O)NC2CCCCC2)C1=O (stereo not drawn),> 11.5,> 11.5,–
CC12CC[C@H](O)C(C)(C)[C@H]1CC[C@](C)(O)C2COc1ccc2ccc(=O)oc2c1 (stereo partly drawn),> 324,288,–
Cc1c(O)c(OC2OC(CO)C(O)C(O)C2O)cc2c1CC[C@@H]1C2(C)C(=O)C[C@]2(C)[C@@H]([C@@](C)(O)C(O)CCC(C)(C)O)[C@H](O)C[C@@]12C (stereo partly drawn),> 200,> 200,–
Nc1nc(Cl)c(N)c(NCC2(CO)CC(CCCc3ccccc3)C2)n1 (stereo not drawn),> 0.2,0.186,–
COc1cc(C)cc(C(=O)OCc2ccccc2)c1C1=C(Cl)C(=O)C(Cl)=CC1=O,> 52.5,8.51,–
CCCN(CCC)C(=O)C(=O)c1c(N)[nH]n(-c2ccccc2)c1=O,–,–,inactive
O=C1C=Cc2ccccc2/C1=C/c1nc(-c2ccccc2)oc1O,> 100,58.9,–
CC1=CCP(C(F)(F)F)P(C(F)(F)F)C1 (stereo not drawn),> 251,> 251,–
O=C(CCC(=O)C(C(=O)c1ccccc1)c1ccccc1)Nc1cccc(C(F)(F)F)c1 (stereo not drawn),–,–,inactive
CO/C(=N\N=C(/C)C(F)(F)F)c1ccncc1,> 200,> 200,–
Cc1ccc(Nc2nc3c(s2)C(=O)c2ccccc2C3=O)cc1,> 16.2,6.17,–
CCCCCCCCS(=O)(=O)O,> 200,> 200,–
NC1=C(O)/C(=N/NS(=O)(=O)c2ccccc2)C(c2cccc(Cl)c2)O1 (stereo not drawn),> 661,32.4,–
CCn1c2ccccc2c2ccc3c(c21)C(=O)c1ccccc1C3=O,> 3.24,> 3.24,–

Structure (SMILES),EC50 [µM],IC50 [µM],outcome
CCCCCCN=Cc1c(O)c(O)c(C(C)C)c2cc(C)c(-c3c(C)cc4c(C(C)C)c(O)c(O)c(C=NCCCCCC)c4c3O)c(O)c12,> 200,129,–
O=P(O)(O)CN1CCNCCN(CP(=O)(O)O)CC1,> 100,70.8,–
NC1(C(=O)O)C2CC3CC(C2)CC1C3 (stereo not drawn),–,–,inactive
O=C(SSC(=O)c1ccccc1)c1ccccc1,> 200,22.4,–
Cc1ccc(S(=O)(=O)N2CCN3C(=O)c4ccccc4C32c2ccc(F)cc2)cc1 (stereo not drawn),> 200,31.6,–
O=C(O)C(CSSCC(NC(=O)C(F)(F)F)C(=O)O)NC(=O)C(F)(F)F (stereo not drawn),> 200,> 200,–
O=C(CSc1nc2[nH]ncc2c(=O)[nH]1)c1ccc(Cl)cc1,> 200,> 200,–
COc1cc(C2c3cc4c(cc3OC(N3CCCCC3)C2C)OCO4)cc(OC)c1OC (stereo not drawn),> 50.1,0.398,–
COc1ccc(C2C(=O)C(Cl)N2Nc2nc(C)cc(=O)[nH]2)cc1OC (stereo not drawn),> 186,20.4,–
Cn1cc(-c2ccc(CCOC3CCCCO3)cc2)c2c(C#N)cccc21 (stereo not drawn),> 200,38.9,–
O=C1NC(=O)N2CCSC2(Cc2ccccc2)N1 (stereo not drawn),–,–,inactive
CN(C(=O)C12C3C4C1C1C2C3C41C(=O)N(C)C(C)(C)C)C(C)(C)C (stereo not drawn),> 30.2,> 30.2,–
CN(C)c1ccc(/C=C(\C#N)c2cccc(Br)c2)cc1,> 200,0.0631,–
C=CCCON(C(=O)OC(C)(C)C)C(C)(C)C,> 200,> 200,–
C1CCC(CC2CCC(NC3=NCCO3)CC2)CC1 (stereo not drawn),> 200,31.6,–
Cc1c(O)c(O)c(C)c(CCN)c1O,> 200,11,–
Cc1ccc(C)n1N1CC(C)N(N=O)CC1C (stereo not drawn),> 200,> 200,–
COc1ccccc1OCC(COC(=O)Nc1ccc(C)cc1)OC(=O)Nc1ccc(C)cc1 (stereo not drawn),> 77.6,72.4,–
O=C1c2c(c(-c3ccccc3)c(-c3ccccc3)c(-c3ccccc3)c2-c2ccccc2)C(=O)N1c1cccc(Br)c1,> 3.31,> 3.31,–
C/C=C1/C(=Cc2[nH]c(C=c3[nH]/c(=C/C4=NC(=O)C(CC)=C4C)c(C)c3CCC(=O)O)c(CCC(=O)O)c2C)NC(=O)C1C (stereo not drawn),> 28.8,> 28.8,–
CC1CN=C(N(C)C(=O)Nc2ccc(Cl)c(Cl)c2)S1 (stereo not drawn),> 200,37.2,–
